Laboratory results taken from PMC6929626, “PET/MRI enables simultaneous in vivo quantification of β-cell mass and function” (Theranostics, 2020).

What was measured:
[1] = system: isolated pancreatic islets; assay: Glucose-dependent insulin secretion of isolated islets after in vivo MnCl2:Bicine (radioimmunoassay); parameters: species or system mice
Experimental: The chronic exposure to high concentrations of Mn can potentially lead to cytotoxic effects on heart, liver and brain [26]. We hypothesized that the early and late retention of Mn might impair the physiological integrity of the glucose-dependent insulin response of islet cells. To investigate the physiological function of the islets, glucose-dependent insulin secretion was measured in vitro 1 or 24 h after a single systemic in vivo administration of MnCl2:Bicine solution (75 µmol/kg) on a new group of mice (Table. 1, Group 4). Secretion assays were performed on isolated islets, followed by quantification of insulin content using radioimmunoassay. The response to glucose of each individual mouse was assessed by calculating the enhancement of insulin secretion between basal (3 mM) and stimulating glucose concentration (15 mM).
Before the isolation of islets, control and RIP1-Tag2 mice previously anesthetized using 1-2% isoflurane/O2 gas mixture (Vetland, Louisville, KY, USA) and intravenously injected with a bolus of MnCl2:Bicine solution (75 µmol/kg), analogously to the in vivo imaging protocol. […] The content of insulin in the supernatant was determined by radioimmunoassay using as insulin standards Millipore 8013-K (Merck, Darmstadt, DE). […]

[2] = LA-ICP-MS imaging of ^55Mn in pancreas sections, cross-validated with autoradiography; assay type: in vivo, mice
Experimental: The whole pancreata from control and transgenic RIP1-Tag2 mice were isolated after cervical dislocation under anesthesia. Then, the whole pancreata were embedded in O.C.T. (optimum cutting temperature) embedding compound (Sakura, Zoeterwonde, NL) and snap frozen at -20 °C. Subsequently, serial 20 µm cryosections were obtained using a Cryostat (Leica 1850, Leica GmbH, Wetzlar, DE) and exposed to a 35×43 cm Storage Phosphor Screen (445SI, Molecular Dynamics, Sunnyvale, CA, USA) at room temperature for 24 h and 48 h for animals sacrificed at 1 h and 24 h, respectively. Scanning of the phosphor imaging plate was performed using a Storm 840 scanner (STORM 840, Amersham Biosciences, Amersham, UK) with a spatial resolution of 50x50 µm^2 and analyzed using ImageJ software (US NIH, Bethesda, Maryland, USA). Thus, we calculated the main effect of the PET tracer uptake, expressed as islet-to-exocrine ratio to estimate the islet diameter identified as single spots throughout the pancreas sections in both groups (Fig. S3).
The autoradiography slides were scanned line-by-line at 60 µm laser spot size using an NWR 213 laser ablation system (New Wave Research, Fremont, CA, USA). […] The isotopes ^44Ca, ^65Cu, ^64Zn,^ 55Mn, ^13C were monitored among the exocrine and the endocrine tissue in the healthy and insulinoma mice. […]

## MnCl2:Bicine
[1]; islets isolated 1 h and 24 h after single i.v. 75 µmol/kg, 8-wk old control and RIP1-Tag2 mice
  effect of contrast agent accumulation on glucose-dependent insulin secretion response: not affected
[1]; islets of 8-wk old control and RIP1-Tag2 mice isolated 1 or 24 h after single i.v. 75 µmol/kg, radioimmunoassay, n=3/3
  enhancement of insulin secretion, stimulating (15 mM) vs basal (3 mM) glucose: 10-20 times
[2]; 1 h after injection, merged elemental images of ^55Mn, ^44Ca, ^64Zn, control and 13-wk RIP1-Tag2 mice
  spatial distribution of exogenous ^55Mn in pancreas sections: higher concentration of ^55Mn in the exocrine pancreas
[2]; 24 h after injection, control and RIP1-Tag2 mice
  spatial distribution of exogenous ^55Mn in pancreas sections: only low levels of ^55Mn were found in the exocrine pancreas
